Like-named read-outs stand apart in the source and are kept apart here.
How the values were obtained:
[1] = system: testes of immature mice
[2] = system: Sertoli cells; conditions: cells isolated from seminiferous tubules ten days post-treatment, compared to control
Experimental: Tubular Cell Isolation—The procedure was performed under sterile conditions. Testes from both control and CP-treated mice were removed and tunica albuginea was gently removed by scalpel knife. Seminiferous tubules (STs) were immersed with PBS and thereafter transported through a syringe 2-3 times to complete the mechanical digestion. Thereafter the STs were enzymatically digested as described by AbuMadigem et al. [International Journal of Molecular Sciences 19, 3804 (2018)].
Gene expression—RNA was extracted from isolated testicular cells, from control or CP-treated immature mice, by GenElute Mannalian Total RNA Miniprep Kit [Sigma, St. Louis, USA). cDNA synthesis was performed according to the qScript cDNA Synthesis Kit (Quantabio, Beverly, Mass., USA) and qPCR was performed using specific primers for each examined marker: ABP (forward: [sequence] (SEQ ID NO: 1); reverse: [sequence] (SEQ ID NO:2); product size, 237 bp), INHIBIN B (forward: [sequence] (SEQ ID NO:3); reverse: [sequence] (SEQ ID NO:4); product size, 209 bp), FSH-R (forward: [sequence] […] (SEQ ID NO: 6); product size, 206 bp), Transferrin (forward: [sequence] (SEQ ID NO:7); reverse: [sequence] (SEQ ID NO:8); product size: 231 bp), Housekeeping gene GAPDH (forward: [sequence] (SEQ ID NO:9); reverse: [sequence] (SEQ ID NO:10); product size, 450 bp). qPCR reaction was performed following the 2× qPCRBIO SyGreen Blue Mix Hi-ROX (PCR Biosystems Ltd, Aztec House, 397-405 Archway Road, London, UK) protocol and was performed using the LightCycler 96 real-time PCR machine (Roche, Roche Diagnostics Corporation, Roche CustomBiotech, Indianapolis, Ind., USA). Program: preincubation 10 minutes at 95° C., 40 cycles of 15 seconds at 95° C., 15 seconds at 60° C. and 10 seconds at 72° C. Melting cycle: 10 seconds at 95° C., 60 seconds at 65° C., and 1 second at 97° C. PCR products were identified by the melting curve. The “threshold cycle” (Ct) value for each transcript was identified. The relative quantity of gene expression was analyzed by the 2° method. Results were expressed as the fold of increase related to the GAPDH of the same examined sample and relatively compared to control treatment group.

[3] = system: spermatogonial cells isolated from CP-treated immature mice; test: In vitro culture in MCS of seminiferous tubule cells from CP-treated immature mice; marker-positive cells by immunofluorescence staining; type: cell-based; conditions: for ACROSIN (meiotic/postmeiotic marker), percentage of stained cells / BOULE (meiotic marker), percentage of stained cells / C-KIT (pre-meiotic marker), percentage of stained cells / CD9 (pre-meiotic marker), percentage of stained cells / CREM (meiotic marker), percentage of stained cells / GFR-a (pre-meiotic marker), percentage of stained cells / VASA (pre-meiotic marker), percentage of stained cells / a-6-INTG (pre-meiotic marker), percentage of stained cells: after 4-5 weeks culture in MCS, FSH 7.5 IU/ml, IL-1α 20 pg/ml or TNF-α 20 pg/ml from the beginning, testosterone 10^−7 M at the last week
[4] = system: isolated seminiferous tubule cells; test: Isolated seminiferous tubule cells of 7-days-old mice cultured in methylcellulose culture system (MCS); marker-positive cells by immunofluorescence staining; type: cell-based
[5] = system: isolated seminiferous tubule cells; test: Isolated seminiferous tubule cells of 7-days-old mice cultured in MCS; premeiotic and meiotic/postmeiotic marker RNA by qPCR; type: cell-based; conditions: GM-CSF 0.1 or 1 ng/ml for 4 weeks; testosterone 10^−7 M added after 2 weeks in control medium for additional 2 weeks; after 4 weeks of culture; compared to control cultured cells
[6] = 10-days post last CP-injection, compared to control, p<0.001
[7] = 10-days post the last CP-injection, compared to control, p<0.001
[8] = CP 100 mg/kg i.p. once a week for 3 weeks, day 10 post-treatment, compared to control, p<0.001
[9] = compared to cells cultured in control medium
[10] = GM-CSF 0.1 or 1 ng/ml for 4 weeks, testosterone 10^−7 M added after 2 weeks in control medium for additional 2 weeks, after 4 weeks of culture, compared to control cultured cells
[11] = factor from the beginning of the culture (IL-1α 10 pg/ml; IL-1β or IL-6 1, 10 or 100 pg/ml), after 4 weeks of culture, compared to control medium
[12] = IL-1α 10 pg/ml added only after 2 weeks of the culture for additional 2 weeks, compared to control medium

**Q.** `O=P1(N(CCCl)CCCl)NCCCO1` (centres unmarked) [CP, cyclophosphamide] was tested. Which “number of Sertoli cells (vimentin)” value [1, 6] did it give?
**A.** significantly reduced

**Q.** What about the “number of peritubular cells (αSMA)” value [1, 6] of the same molecule?
**A.** significantly reduced

**Q.** And the “number of cells stained positive to the meiotic/postmeiotic marker acrosin” value [1, 7]?
**A.** significantly reduced

**Q.** What about the “number of meiotic cells stained positive to BOULE” value [1, 7] of the same molecule?
**A.** significantly reduced

**Q.** What about the “number of meiotic cells stained positive to CREM” value [1, 7] of the same molecule?
**A.** significantly reduced

**Q.** And the “number of premeiotic cells stained positive to CD9” value [1, 7]?
**A.** significantly reduced

**Q.** And the “number of premeiotic cells stained positive to VASA” value [1, 7]?
**A.** significantly reduced

**Q.** And the “number of premeiotic cells stained positive to c-KIT” value [1, 7]?
**A.** significantly reduced

**Q.** And the “number of premeiotic cells stained positive to α-6 INTEGRIN” value [1, 7]?
**A.** significantly reduced

**Q.** And the testicular weight ([1]; CP 100 mg/kg i.p. once a week for 3 weeks, all time points during 5 weeks after the last injection, compared to control mice, p<0.001)?
**A.** significantly decreased

**Q.** What about the seminiferous tubules histology ([1]; CP 100 mg/kg i.p. once a week for 3 weeks, day 10 post-treatment, compared to control) of the same molecule?
**A.** significantly impaired

**Q.** And the testicular cell count [1, 8]?
**A.** decreased

**Q.** What about the testicular weight [1, 8] of the same molecule?
**A.** decreased

**Q.** What about the seminiferous tubules histology ([1]; CP 100 mg/kg i.p. once a week for 3 weeks, during 3 weeks after the last injection) of the same molecule?
**A.** impaired

**Q.** And the “time of most severe damage for the seminiferous tubules” value ([1]; CP 100 mg/kg i.p. once a week for 3 weeks, weeks post-treatment)?
**A.** 1-2 weeks

**Q.** And the “expression levels of androgen binding protein (ABP)” value [2]?
**A.** did not significantly affect

**Q.** And the “expression levels of transferrin” value ([2]; p<0.01)?
**A.** significantly increased

**Q.** And the “expression levels of FSH-receptor (FSH-R)” value ([2]; p<0.05)?
**A.** significantly increased

**Q.** And the “expression levels of inhibin” value ([2]; p<0.05)?
**A.** significantly increased

**Q.** How did the “ACROSIN (meiotic/postmeiotic marker), percentage of stained cells” value [3] turn out when `C[C@]12CC[C@H]3[C@@H](CCC4=CC(=O)CC[C@@]43C)[C@@H]1CC[C@@H]2O` [testosterone, reference compound] was run?
**A.** 55.53%

**Q.** And the “BOULE (meiotic marker), percentage of stained cells” value [3]?
**A.** 22.15%

**Q.** And the “C-KIT (pre-meiotic marker), percentage of stained cells” value [3]?
**A.** 11.13%

**Q.** And the “CD9 (pre-meiotic marker), percentage of stained cells” value [3]?
**A.** 42.63%

**Q.** What about the “CREM (meiotic marker), percentage of stained cells” value [3] of the same molecule?
**A.** 38.42%

**Q.** What about the “GFR-a (pre-meiotic marker), percentage of stained cells” value [3] of the same molecule?
**A.** 24.03%

**Q.** And the “VASA (pre-meiotic marker), percentage of stained cells” value [3]?
**A.** 23.76%

**Q.** And the “a-6-INTG (pre-meiotic marker), percentage of stained cells” value [3]?
**A.** 12.23%

**Q.** What about the “percentage of the meiotic/postmeiotic ACROSIN positive cells” value [3, 9] of the same molecule?
**A.** significantly increased

**Q.** And the “percentage of the other examined premeiotic and meiotic (or meiotic/postmeiotic) cells developed in MCS” value [3, 9]?
**A.** without any significant effect

**Q.** What about the “percentage of the premeiotic CD9 positive cells” value [3, 9] of the same molecule?
**A.** significantly increased

**Q.** Which “percentage of VASA positive cells” value [4, 10] does the source give for GM-CSF here?
**A.** significantly increased

**Q.** What about the “percentage of acrosin positive cells” value [4, 10] of the same molecule?
**A.** did not significantly increase

**Q.** What about the “percentages of BOULE positive cells” value [4, 10] of the same molecule?
**A.** significantly increased

**Q.** What about the “BOULE expression levels (qPCR)” value [5] of the same molecule?
**A.** significantly increased

**Q.** What about the “PLZF expression level (qPCR)” value [5] of the same molecule?
**A.** significantly increased

**Q.** And the “VASA expression level (qPCR)” value [5]?
**A.** significantly increased

**Q.** And the “acrosin expression levels (qPCR)” value [5]?
**A.** did not significantly increase

**Q.** With “IL-1β: interleukin 1 beta cytokine (PeproTech), 1, 10 or 100 pg/ml” as the molecule, how does the “percentages of BOULE positive cells” value [4, 11] read?
**A.** significantly increased

**Q.** What about the “percentages of VASA positive cells” value [4, 11] of the same molecule?
**A.** significantly increased

**Q.** What about the “percentages of acrosin positive cells” value [4, 11] of the same molecule?
**A.** significantly increased

**Q.** What does the source list for “IL-6: interleukin-6 cytokine (PeproTech), 1, 10 or 100 pg/ml”?
**A.** percentages of BOULE positive cells [4, 11]: significantly increased; percentages of VASA positive cells [4, 11]: significantly increased; percentages of acrosin positive cells [4, 11]: significantly increased

**Q.** What does the source list for TNFα?
**A.** ACROSIN (meiotic/postmeiotic marker), percentage of stained cells [3]: 36.4%; BOULE (meiotic marker), percentage of stained cells [3]: 21.1%; C-KIT (pre-meiotic marker), percentage of stained cells [3]: 29.05%; CD9 (pre-meiotic marker), percentage of stained cells [3]: 33.52%; CREM (meiotic marker), percentage of stained cells [3]: 36.1%; GFR-a (pre-meiotic marker), percentage of stained cells [3]: 25.3%; VASA (pre-meiotic marker), percentage of stained cells [3]: 31.67%; a-6-INTG (pre-meiotic marker), percentage of stained cells [3]: 25.76%; percentage of the other examined premeiotic and meiotic (or meiotic/postmeiotic) cells developed in MCS [3, 9]: without any significant effect; percentage of the premeiotic CD9 positive cells [3, 9]: significantly increased

B1: IL-1α: interleukin 1 alpha cytokine (BioLegend 20 pg/ml; PeproTech 10 pg/ml) (protein, UniProt P01583 113-271, looked up)
Interleukin-1 alpha: SAPFSFLSNVKYNFMRIIKYEFILNDALNQSIIRANDQYLTAAALHNLDEAVKFDMGAYKSSKDDAKITVILRISKTQLYVTAQDEDQPVLLKEMPEIPKTITGSETNLLFFWETHGTKNYFTSVAHPNLFIATKQDYWVCLAGGPPSITDFQILENQA
**Q.** Which “percentages of BOULE positive cells” value [4, 12] does the source give for B1 here?
**A.** increased the percentages of BOULE positive cells, but not significantly

**Q.** What about the “percentages of VASA positive cells” value [4, 12] of the same molecule?
**A.** increased the percentages of VASA positive cells, but not significantly

**Q.** What about the “percentages of acrosin cells” value [4, 12] of the same molecule?
**A.** increased the percentages of acrosin cells, but not significantly

**Q.** And the “percentages of BOULE positive cells” value [4, 11]?
**A.** significantly increased

**Q.** And the “percentages of VASA positive cells” value [4, 11]?
**A.** significantly increased

**Q.** What about the “percentages of acrosin positive cells” value [4, 11] of the same molecule?
**A.** significantly increased

**Q.** What about the “ACROSIN (meiotic/postmeiotic marker), percentage of stained cells” value [3] of the same molecule?
**A.** 34.27%

**Q.** And the “BOULE (meiotic marker), percentage of stained cells” value [3]?
**A.** 27.16%

**Q.** What about the “C-KIT (pre-meiotic marker), percentage of stained cells” value [3] of the same molecule?
**A.** 16.5%

**Q.** What about the “CD9 (pre-meiotic marker), percentage of stained cells” value [3] of the same molecule?
**A.** 23.4%

**Q.** And the “CREM (meiotic marker), percentage of stained cells” value [3]?
**A.** 30.45 + %

**Q.** And the “GFR-a (pre-meiotic marker), percentage of stained cells” value [3]?
**A.** 22.77%

**Q.** And the “VASA (pre-meiotic marker), percentage of stained cells” value [3]?
**A.** 20.8%

**Q.** And the “a-6-INTG (pre-meiotic marker), percentage of stained cells” value [3]?
**A.** 17.5%

**Q.** And the “percentage of premeiotic, meiotic and meiotic/postmeiotic examined cells developed in MCS” value [3, 9]?
**A.** did not show any significant effect

— US20230064363A1, “MATURATION OF SPERMATOGONIAL CELLS IN VITRO BT GROWTH FACTORS AND HORMONES” (B.G. Negev Technologies & Applications Ltd., at Ben-Gurion …, priority 2020, published 2023)
